Values of other authors as cited in patent publication US11930809B2, “Preservation of biomaterial properties and methods of storing” (LIFELINE SCIENTIFIC, INC., priority 2012, dated 2024).

How the values were obtained:
[1] = tested on: chondrocytes in articular cartilage; conditions: conventional cryopreservation by freezing in a solution that includes DMSO
[2] = tested on: TIMP-1
[3] = early Phase clinical studies

Question: Which “death of chondrocytes in articular cartilage” value [1] does the source give for C[S+](C)[O-] [DMSO, dimethyl sulfoxide] here?
Answer: The value was 80-100%.

Question: With COC(=O)C1=CO[C@@H](O)[C@@H]2C(CO)=CC[C@H]12 [genipin] as the compound, how does the “expression of TIMP-1” value [2] read?
Answer: Its value is “upregulate the expression of TIMP-1”.

Question: For “PCK3145: synthetic peptide corresponding to amino acids 31-45 of prostate secretory protein 94 (EWQTDNCETCTCYET; UniProt P08118 51-65, looked up, fragment)”, which tolerability [3] is on record?
Answer: The tolerability was “well tolerated”.
